Key:
[1] = test system: Human peripheral blood mononuclear cells; assay: Human Concanavalin-A Proliferation Assay (Con HU Assay); format: cell-based; conditions: Homo sapiens, PBMC, concanavalin-A stimulated human PBMC; for inhibition at 100 µM / inhibition at 10 µM / inhibition at 1 µM: 72 h, 3 days, read-out: % Inhibition of proliferation (at concentrations of 1,10, or 100 μm); for inhibition at 100 µM: concentration 100 μm (in parentheses in the cell); for IC50: tritiated thymidine; for inhibition at 10 µM: concentration 10 μm (in parentheses in the cell); for inhibition at 1 µM: concentration 1 μm (in parentheses in the cell)
Method in brief: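 Proliferation read as tritiated thymidine uptake (0.5 μCi/well, 6 h pulse on day 3) in human PBMC cultured 3 days with 2.5 μg/ml (final) concanavalin-A. Cells, 50,000 per well in supplemented RPMI 1640 with 10% FBS, received compound 15 min before mitogen.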

Row | melting point [°C] | SMILES | inhibition at 100 µM [1] [%] | IC50 [1] [nM] | inhibition at 10 µM [1] [%] | inhibition at 1 µM [1] [%]
1 | 203 to 205 | Cc1cc(C)c(C(=O)Nc2ccc(-n3nc(C(F)(F)F)cc3C(F)(F)F)cc2)c(C)c1 [Example 78, N-[4-[3,5-bis(trifluoromethyl)-1H-pyrazol-1-yl]phenyl]-2,4,6-trimethylbenzamide] | 95 | 607 | – | –
2 | 188 to 189 | CC(=O)c1cc(C(F)(F)F)nn1-c1ccc(NC(=O)c2cccnc2F)cc1 [Example 315, N-(4-(5-acetyl-3-(trifluoromethyl)-1H-pyrazol-1-yl)phenyl)-2-fluoronicotinamide] | – | 320 | – | –
3 | 174 to 175 | COC(=O)c1cccc(C(=O)Nc2ccc(-n3nc(C(F)(F)F)cc3C(F)(F)F)cc2)c1 [Example 129, Methyl 3-[[[4-[3,5-bis(trifluoromethyl)-1H-pyrazol-1-yl]phenyl]amino]carbonyl]benzoate] | 100 | 380 | – | –
4 | 165 to 167 | Cc1ccccc1C(=O)Nc1ccc(-n2nc(C(F)(F)F)cc2C(F)(F)F)cc1 [Example 96, N-[4-[3,5-bis(trifluoromethyl)-1H-pyrazol-1-yl]phenyl]-2-methylbenzamide] | 99 | 338 | – | –
5 | 165 to 166 | O=C(Nc1ccc(-n2nc(-c3ccoc3)cc2Cl)cc1)c1ccncc1F [Example 356, N-(4-(5-chloro-3-(3-furyl)-1H-pyrazol-1-yl)phenyl)-3-fluoroisonicotinamide] | – | 247 | – | –
6 | 156 to 159 | O=C(Nc1ccc(-n2nc(C(F)(F)F)cc2C(F)(F)F)nc1)c1ccccc1Cl [Example 260, N-[2-[3,5-bis(trifluoromethyl)-1H-pyrazol-1-yl]-5-pyridinyl]-2-chlorobenzamide] | – | 369 | 96 | –
7 | 108 to 109 | O=C(Nc1ccc(-n2nc(C(F)(F)F)cc2C(F)(F)F)cc1)c1ccccc1Oc1ccccc1 [Example 57, N-[4-[3,5-bis(trifluoromethyl)-1H-pyrazol-1-yl]phenyl]-2-phenoxybenzamide] | – | – | – | 5
8 | 156 to 159 | O=C(Nc1ccc(-n2nc(C(F)(F)F)cc2C(F)(F)F)cc1)C1CCNCC1 [Example 125, N-[4-[3,5-bis(trifluoromethyl)-1H-pyrazol-1-yl]phenyl]-4-piperidinecarboxamide] | – | – | – | 6
9 | 182 to 184 | O=C(Nc1ccc(-n2nc(C(F)(F)F)cc2C(F)(F)F)cc1)c1ccccc1Br [Example 147, N-[4-[3,5-bis(trifluoromethyl)-1H-pyrazol-1-yl]phenyl]-2-bromobenzamide] | 99 | 71 | – | –
10 | 174 to 175 | O=C(Nc1ccc(-n2nc(C(F)(F)F)cc2C(F)(F)F)cc1)C1=CCCC1 [Example 10, N-[4-[3,5-bis(trifluoromethyl)-1H-pyrazol-1-yl]phenyl]-1-cyclopentene-1-carboxamide] | – | 114 | 100 | –
11 | 149 to 152 | O=C(Nc1ccc(-n2nc(C(F)(F)F)cc2C(F)(F)F)cc1)c1cc(F)c(F)cc1Cl [Example 223, N-[4-[3,5-bis(trifluoromethyl)-1H-pyrazol-1-yl]phenyl]-2-chloro-4,5-difluorobenzamide] | – | 93 | 100 | –
12 | 155 to 157 | O=C(Nc1ccc(-n2nc(C(F)(F)F)cc2C(F)(F)F)cc1)c1ccccc1Cl [Example 91, N-[4-[3,5-bis(trifluoromethyl)-1H-pyrazol-1-yl]phenyl]-2-chlorobenzamide] | 99 | 138 | – | –
13 | 153 to 155 | CCCCCCOc1ccc(C(=O)Nc2ccc(-n3nc(C(F)(F)F)cc3C(F)(F)F)cc2)cc1 [Example 74, N-[4-[3,5-bis(trifluoromethyl)-1H-pyrazol-1-yl]phenyl]-4-(hexyloxy)benzamide] | 83 | 22800 | – | –
14 | 194 to 195 | O=C(Nc1ccc(F)cc1)c1ccc(-n2nc(C(F)(F)F)cc2C(F)(F)F)cc1 [Example 30, 4-[3,5-bis(trifluoromethyl)-1H-pyrazol-1-yl]-N-(4-fluorophenyl)benzamide] | – | – | – | 6
15 | 253 to 255 | O=C(Nc1ccc(-n2nc(C(F)(F)F)cc2C(F)(F)F)cc1)c1cc2cc(F)ccc2[nH]1 [Example 20, N-[4-[3,5-bis(trifluoromethyl)-1H-pyrazol-1-yl]phenyl]-5-fluoro-1H-indole-2-carboxamide] | – | – | – | 10
16 | 182 to 184 | [N-]=[N+]=Nc1ccc(C(=O)Nc2ccc(-n3nc(C(F)(F)F)cc3C(F)(F)F)cc2)cc1 [Example 60, 4-Azido-N-[4-[3,5-bis(trifluoromethyl)-1H-pyrazol-1-yl]phenyl]benzamide] | 100 | 296 | – | –

Row | melting point [°C] | SMILES | inhibition at 100 µM [1] [%] | IC50 [1] [nM] | inhibition at 10 µM [1] [%] | inhibition at 1 µM [1] [%]
17 | 225 to 227 | O=C(Nc1ccc(-n2nc(C(F)(F)F)cc2C(F)(F)F)cc1)Nc1ccc(Cl)cc1[N+](=O)[O-] [Example 48, N-[4-[3,5-bis(trifluoromethyl)-1H-pyrazol-1-yl]phenyl]-N′-(4-chloro-2-nitrophenyl)urea] | – | 468 | – | 85
18 | 213 to 214 | COc1cc(C(=O)Nc2ccc(-n3nc(C(F)(F)F)cc3C(F)(F)F)cc2)cs1 [Example 259, N-[4-[3,5-bis(trifluoromethyl)-1H-pyrazol-1-yl]phenyl]-5-methoxy-3-thiophenecarboxamide] | – | – | – | 5
19 | 109 to 112 | O=C(Nc1ccc(-n2nc(C(F)(F)F)cc2Br)cc1)c1cccc(F)c1F [Example 348, N-(4-(5-bromo-3-(trifluoromethyl)-1H-pyrazol-1-yl)phenyl)-2,3-difluorobenzamide] | – | 114 | – | –
20 | 219 to 220 | CS(=O)(=O)c1ccc(C(=O)Nc2ccc(-n3nc(C(F)(F)F)cc3C(F)(F)F)cc2)c(Cl)c1 [Example 207, N-[4-[3,5-bis(trifluoromethyl)-1H-pyrazol-1-yl]phenyl]-2-chloro-4-(methylsulfonyl)benzamide] | – | 372 | 100 | –
21 | 172 to 173 | CC1CC1C(=O)Nc1ccc(-n2nc(C(F)(F)F)cc2C(F)(F)F)cc1 (stereo not drawn) [Example 7, N-[4-[3,5-bis(trifluoromethyl)-1H-pyrazol-1-yl]phenyl]-2-methylcyclopropanecarboxamide] | – | 403 | 97 | –
22 | 184 to 186 | O=C(Nc1ccc(-n2nc(C(F)(F)F)cc2C(F)(F)F)cc1)c1ccc(F)cc1 [Example 90, N-[4-[3,5-bis(trifluoromethyl)-1H-pyrazol-1-yl]phenyl]-4-fluorobenzamide] | 98 | 144 | – | –
23 | 203 to 204 | O=C(Nc1ccc(-n2nc(C(F)(F)F)cc2C(F)(F)F)cc1)Nc1cccc([N+](=O)[O-])c1 [Example 31, N-[4-[3,5-bis(trifluoromethyl)-1H-pyrazol-1-yl]phenyl]-N′-(3-nitrophenyl)urea] | 100 | 4040 | – | –
24 | 193 to 194 | O=C(Nc1ccc(-n2nc(C(F)(F)F)cc2C(F)(F)F)cc1)c1ccc(O)c([N+](=O)[O-])c1 [Example 180, N-[4-[3,5-bis(trifluoromethyl)-1H-pyrazol-1-yl]phenyl]-4-hydroxy-3-nitrobenzamide] | – | 2870 | 95 | –
25 | 113 to 116 | O=C(Nc1ccc(-n2nc(C(F)(F)F)cc2C(F)(F)F)cc1)C1CCCO1 (stereo not drawn) [Example 241, N-[4-[3,5-bis(trifluoromethyl)-1H-pyrazol-1-yl]phenyl]tetrahydro-2-furancarboxamide] | – | – | – | 10
26 | 282 to 283 | O=C(O)c1ccc(C(=O)Nc2ccc(-n3nc(C(F)(F)F)cc3C(F)(F)F)cc2)cc1 [Example 157, 4-[[[4-[3,5-bis(trifluoromethyl)-1H-pyrazol-1-yl]phenyl]amino]carbonyl]benzoic acid] | – | 6760 | 42 | –
27 | 145 to 147 | Cc1nnsc1C(=O)Nc1ccc(-n2nc(C(F)(F)F)cc2Br)cc1 [Example 335, N-(4-(5-bromo-3-(trifluoromethyl)-1H-pyrazol-1-yl)phenyl)-4-methyl-1,2,3-thiadiazole-5-carboxamide] | – | 103 | – | –
28 | 142 to 143 | O=C(Nc1cccc(-n2nc(C(F)(F)F)cc2C(F)(F)F)c1)c1c(F)cccc1F [Example 224, N-[3-[3,5-bis(trifluoromethyl)-1H-pyrazol-1-yl]phenyl]-2,6-difluorobenzamide] | – | – | – | 2
29 | 150 to 152 | O=C(Nc1cccc(-n2nc(C(F)(F)F)cc2C(F)(F)F)c1)c1ccc(F)cc1 [Example 202, N-[3-[3,5-bis(trifluoromethyl)-1H-pyrazol-1-yl]phenyl]-4-fluorobenzamide] | – | – | – | 6
30 | 220 to 221 | CC#CC(=O)Nc1ccc(-n2nc(C(F)(F)F)cc2C(F)(F)F)cc1 [Example 12, N-[4-[3,5-bis(trifluoromethyl)-1H-pyrazol-1-yl]phenyl]-2-butynamide] | – | 427 | 98 | –
31 | 177 to 178 | O=C(Nc1ccc(-n2nc(C(F)(F)F)cc2C(F)(F)F)cc1)C1CC=CCC1 (stereo not drawn) [Example 29, N-[4-[3,5-bis(trifluoromethyl)-1H-pyrazol-1-yl]phenyl]-3-cyclohexene-1-carboxamide] | – | 51 | 100 | –

Reference: US20010044445A1, “AZOLE INHIBITORS OF CYTOKINE PRODUCTION” (priority 1999, published 2001)
